Results reported in article PMC12529880, “Structural mechanisms for cold‐adapted activity of phosphoenolpyruvate carboxykinase” (Protein Science : A Publication of the Protein Society, 2025).
Blank lines part the entries; values can stand above or below the molecule they belong to.

Assays:
Type in all cases: binding
[1] = molecular target: T1, PnPEPCK (Polaromonas naphthalenivorans, UniProt A1VIE9); experiment: X-ray crystal structure
T1 construct: gene pckG; full length, 622 residues, N-terminal His6-SUMO tag cleaved off with no additional amino acids; codon-optimised gene in pESUMO-Star; E. coli BL21(DE3); EC 4.1.1.32
T1 sequence (A1VIE9 entry or part of it): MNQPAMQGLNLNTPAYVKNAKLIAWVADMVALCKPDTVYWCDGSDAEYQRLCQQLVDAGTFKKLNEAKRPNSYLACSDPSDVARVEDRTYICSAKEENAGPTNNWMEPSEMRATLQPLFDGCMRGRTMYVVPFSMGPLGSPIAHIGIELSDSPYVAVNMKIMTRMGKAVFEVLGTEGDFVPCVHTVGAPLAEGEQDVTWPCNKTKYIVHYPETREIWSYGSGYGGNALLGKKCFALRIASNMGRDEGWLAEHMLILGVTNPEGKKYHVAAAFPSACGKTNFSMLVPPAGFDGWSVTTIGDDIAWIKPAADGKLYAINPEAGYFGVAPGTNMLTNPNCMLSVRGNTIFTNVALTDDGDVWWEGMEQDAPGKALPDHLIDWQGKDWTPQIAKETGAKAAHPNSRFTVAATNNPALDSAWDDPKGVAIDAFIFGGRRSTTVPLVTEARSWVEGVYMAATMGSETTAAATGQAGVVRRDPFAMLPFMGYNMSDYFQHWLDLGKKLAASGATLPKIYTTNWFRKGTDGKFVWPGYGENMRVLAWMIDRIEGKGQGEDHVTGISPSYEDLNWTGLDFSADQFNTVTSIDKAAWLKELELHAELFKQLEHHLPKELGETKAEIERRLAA

[2] = molecular target: T1, PnPEPCK; experiment: differential scanning fluorimetry (SYPRO Orange); conditions: reference is the Mn-only enzyme, 21.4 μM enzyme, 1 mM MnCl2, 25 mM HEPES pH 7.4
From the text: differential scanning fluorimetry (SYPRO Orange) on PnPEPCK

[3] = molecular target: T2, rcPEPCK (Rattus norvegicus, UniProt P07379); experiment: differential scanning fluorimetry (SYPRO Orange); conditions: reference is the Mn-only enzyme, 21.4 μM enzyme, 1 mM MnCl2, 25 mM HEPES pH 7.4
T2 construct: gene Pck1; full length, 622 residues, SUMO tag removed by SUMO protease; E. coli BL21(DE3)
T2 sequence (P07379 1-622): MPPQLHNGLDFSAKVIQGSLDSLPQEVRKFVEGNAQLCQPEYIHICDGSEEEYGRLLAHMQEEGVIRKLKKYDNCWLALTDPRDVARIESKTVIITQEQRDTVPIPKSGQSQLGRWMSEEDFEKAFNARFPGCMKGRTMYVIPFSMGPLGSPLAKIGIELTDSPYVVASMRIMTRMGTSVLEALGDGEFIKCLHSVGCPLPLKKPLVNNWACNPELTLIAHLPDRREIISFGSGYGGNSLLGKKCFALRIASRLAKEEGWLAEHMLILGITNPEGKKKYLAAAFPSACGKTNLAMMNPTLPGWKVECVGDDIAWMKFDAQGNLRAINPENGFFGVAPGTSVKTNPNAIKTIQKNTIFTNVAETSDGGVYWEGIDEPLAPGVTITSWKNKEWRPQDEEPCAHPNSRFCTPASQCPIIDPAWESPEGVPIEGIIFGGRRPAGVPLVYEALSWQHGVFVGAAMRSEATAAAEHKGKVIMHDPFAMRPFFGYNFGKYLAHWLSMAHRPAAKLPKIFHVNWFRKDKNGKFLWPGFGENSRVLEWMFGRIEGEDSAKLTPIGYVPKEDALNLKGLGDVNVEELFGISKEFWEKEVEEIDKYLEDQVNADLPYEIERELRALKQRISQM
From the text: differential scanning fluorimetry (SYPRO Orange) on rcPEPCK

[4] = absolute TM of Mn-GTP complex, 214 μM GTP
[5] = absolute TM of Mn-oxalate complex, 214 μM oxalate

Compound: Nc1nc2c(ncn2[C@@H]2O[C@H](COP(=O)(O)OP(=O)(O)O)[C@@H](O)[C@H]2O)c(=O)[nH]1 [GDP]
- X-ray crystal structure ([1]; ternary complex with PGA, closed): All three ternary complexes (βSP‐GTP, oxalate‐GTP, and PGA‐GDP)

- PnPEPCK / T M (°C) [2, 4]: 59.5 °C
- rcPEPCK / T M (°C) [3, 4]: 61.4 °C
Compound: Nc1nc2c(ncn2[C@@H]2O[C@H](COP(=O)(O)OP(=O)(O)OP(=O)(O)O)[C@@H](O)[C@H]2O)c(=O)[nH]1 [GTP]
- X-ray crystal structure ([1]; ternary complexes with βSP or oxalate, closed): All three ternary complexes (βSP‐GTP, oxalate‐GTP, and PGA‐GDP)

- X-ray crystal structure ([1]; binary Mn2+ complex, open, P2_12_12_1 and C222_1 crystals): both with PEP bound at the active site
Compound: C=C(OP(=O)(O)O)C(=O)O [PEP]

Compound: O=C(O)COP(=O)(O)O [PGA]
- X-ray crystal structure ([1]; PEP analogue, ternary complex with GDP, closed): All three ternary complexes (βSP‐GTP, oxalate‐GTP, and PGA‐GDP)

- PnPEPCK / T M (°C) [2, 5]: 46.3 °C
- rcPEPCK / T M (°C) [3, 5]: 54.4 °C
Compound: O=C(O)C(=O)O [oxalate]
- X-ray crystal structure ([1]; enol-pyruvate mimic, ternary complex with GTP, closed): All three ternary complexes (βSP‐GTP, oxalate‐GTP, and PGA‐GDP)

Compound: O=C(O)C(=O)CS(=O)(=O)O [βSP]
- X-ray crystal structure ([1]; OAA analogue, binary Mn2+ complex and ternary complex with GTP, closed): All three ternary complexes (βSP‐GTP, oxalate‐GTP, and PGA‐GDP) in addition to βSP alone
